Consider four compounds from PMC4147592 (2014).

Assay [1] deals with A08 (DNA, aptamer) AGCCTCGTCTGTTCTCCCGGCAGTGTGGGCGAATCTATGCGTACCGTTCGATATCGTGGGGAAGACAAGCAGACGT
Put plainly: SYBR Green I displacement fluorescence. The following applies: 137 mM NaCl, 2.7 mM KCl, 10 mM Na2HPO4, 2 mM KH2PO4, pH 7.4, tracer SYBR Green I.

The subject of assay [2] is B08 (DNA, aptamer) AGCCTCGTCTGTTCTCCCGGCGCATGATCATTCGGTGGGTAAGGTGGTGGTAACGTTGGGGAAGACAAGCAGACGT
Put plainly: SYBR Green I displacement fluorescence. The following applies: 137 mM NaCl, 2.7 mM KCl, 10 mM Na2HPO4, 2 mM KH2PO4, pH 7.4, tracer SYBR Green I.

Assay [3] concerns A08 minimer (DNA, aptamer) GGCAGTGTGGGCGAATCTATGCGTACCGTTCGATATCGTG
The assay can be described thus: SYBR Green I displacement fluorescence. Conditions: 137 mM NaCl, 2.7 mM KCl, 10 mM Na2HPO4, 2 mM KH2PO4, pH 7.4, tracer SYBR Green I.

Assay [4] has as its system Non-specific control (DNA, single strand) AGCACGTTGGTAGGTCGGTTTGGGTTTCGTGC
The assay can be described thus: SYBR Green I displacement fluorescence. Conditions: 137 mM NaCl, 2.7 mM KCl; 10 mM Na2HPO4, 2 mM KH2PO4, pH 7.4; tracer SYBR Green I; highest OTA about 0.18 µM.

The subject of assay [5] is 1.12.2 (DNA, aptamer) GATCGGGTGTGGGTGGCGTAAAGGGAGCATCGGACA
The assay can be described thus: magnetic beads isocratic elution, fluorescence. The following applies: 137 mM NaCl, 2.7 mM KCl; immobilised compound (amine Dynabeads, EDC); 10 mM Na2HPO4, 2 mM KH2PO4, pH 7.4; apparent.

The subject of assay [6] is A08 (DNA, aptamer) AGCCTCGTCTGTTCTCCCGGCAGTGTGGGCGAATCTATGCGTACCGTTCGATATCGTGGGGAAGACAAGCAGACGT
Put plainly: magnetic beads isocratic elution, fluorescence. Conditions: 137 mM NaCl, 2.7 mM KCl; immobilised compound (amine Dynabeads, EDC); 10 mM Na2HPO4, 2 mM KH2PO4, pH 7.4; apparent.

The test system of assay [7] is B08 (DNA, aptamer) AGCCTCGTCTGTTCTCCCGGCGCATGATCATTCGGTGGGTAAGGTGGTGGTAACGTTGGGGAAGACAAGCAGACGT
The assay can be described thus: magnetic beads isocratic elution, fluorescence. The following applies: 137 mM NaCl, 2.7 mM KCl; immobilised compound (amine Dynabeads, EDC); 10 mM Na2HPO4, 2 mM KH2PO4, pH 7.4; apparent.

For assay [8], the system named is A08 (DNA, aptamer) AGCCTCGTCTGTTCTCCCGGCAGTGTGGGCGAATCTATGCGTACCGTTCGATATCGTGGGGAAGACAAGCAGACGT
The assay can be described thus: fluorescence enhancement at 520 nm. Conditions: 137 mM NaCl, 2.7 mM KCl; 10 mM Na2HPO4, 2 mM KH2PO4, pH 7.4; excitation 497 nm.

For assay [9], the system named is B08 (DNA, aptamer) AGCCTCGTCTGTTCTCCCGGCGCATGATCATTCGGTGGGTAAGGTGGTGGTAACGTTGGGGAAGACAAGCAGACGT
Put plainly: fluorescence enhancement at 520 nm. Conditions: 137 mM NaCl, 2.7 mM KCl; 10 mM Na2HPO4, 2 mM KH2PO4, pH 7.4; excitation 497 nm.

In assay [10] the test system is A08 minimer (DNA, aptamer) GGCAGTGTGGGCGAATCTATGCGTACCGTTCGATATCGTG
Put plainly: fluorescence enhancement at 520 nm. The following applies: 137 mM NaCl, 2.7 mM KCl; 10 mM Na2HPO4, 2 mM KH2PO4, pH 7.4; excitation 497 nm.

Assay [11] deals with Non-specific control (DNA, single strand) AGCACGTTGGTAGGTCGGTTTGGGTTTCGTGC
Put plainly: fluorescence enhancement at 520 nm. The following applies: 137 mM NaCl, 2.7 mM KCl; 10 mM Na2HPO4, 2 mM KH2PO4, pH 7.4; excitation 497 nm.

The mark [12] stands for this setting: compared at 30 and 100 nM, highest about 0.18 µM.

For `C[C@@H]1Cc2ccc(C(=O)N[C@@H](Cc3ccccc3)C(=O)O)c(O)c2C(=O)O1`, the binding entry in [1] (OTA signal 6–10 fold larger), in [2] (OTA signal 2–3 fold larger) and in [3] (OTA signal 6–10 fold larger) was “weak” in each case.
On to `C[C@@H]1Cc2c(Cl)cc(C(=O)N[C@@H](Cc3ccccc3)C(=O)O)c(O)c2C(=O)O1`, for which the binding entry is reported as “yes” in assay [2], “yes” in assay [3] (linear signal to 100 nM OTA) and “no” in assay [4]. For the same compound, the KD in assay [5] worked out at 370 ± 250 nM; in [6], 290 ± 150 nM; in assay [7] it was 110 ± 50 nM.
On to `CC(=O)CC(c1ccccc1)c1c(O)c2ccccc2oc1=O` (stereo not shown), for which the binding result is given as “no” in assay [1] (setting [12]), “weak” in assay [2] (OTA signal 2–3 fold larger) and “no” in assay [3] (setting [12]).
Turning to `CCCN(CCCN(C)C)c1cc(C=C2Sc3ccccc3N2C)c2ccccc2[n+]1-c1ccccc1`, the binding entry in assay [8], in assay [9], in assay [10] and in assay [11] was “yes” in each case.
